Measurements taken from article PMC8455565 (Scientific Reports, 2021).

Legend:
Neutrophils (LPS) = experiment: High-dimensional phosphorylation analysis, Neutrophils (LPS); assay type: cell-based, human; conditions: 30 µM, 15'
Method: (§1) The analysis measured 94 intracellular signaling nodes (81 phosphorylation sites, 10 total protein levels and 3 methylation/acetylation sites) in stimulated immune cells, including B cells (IgM plus CD40L), CD4 + and CD8 + T cells (IL-2; CD3 plus CD28), monocytes (M-CSF), NK cells (IL-2), and granulocytes (LPS).

ITK = biological target: T1, ITK (Homo sapiens, UniProt Q08881); experiment: Kinase selectivity biochemical assay, ITK
T1 sequence (Q08881 1-620): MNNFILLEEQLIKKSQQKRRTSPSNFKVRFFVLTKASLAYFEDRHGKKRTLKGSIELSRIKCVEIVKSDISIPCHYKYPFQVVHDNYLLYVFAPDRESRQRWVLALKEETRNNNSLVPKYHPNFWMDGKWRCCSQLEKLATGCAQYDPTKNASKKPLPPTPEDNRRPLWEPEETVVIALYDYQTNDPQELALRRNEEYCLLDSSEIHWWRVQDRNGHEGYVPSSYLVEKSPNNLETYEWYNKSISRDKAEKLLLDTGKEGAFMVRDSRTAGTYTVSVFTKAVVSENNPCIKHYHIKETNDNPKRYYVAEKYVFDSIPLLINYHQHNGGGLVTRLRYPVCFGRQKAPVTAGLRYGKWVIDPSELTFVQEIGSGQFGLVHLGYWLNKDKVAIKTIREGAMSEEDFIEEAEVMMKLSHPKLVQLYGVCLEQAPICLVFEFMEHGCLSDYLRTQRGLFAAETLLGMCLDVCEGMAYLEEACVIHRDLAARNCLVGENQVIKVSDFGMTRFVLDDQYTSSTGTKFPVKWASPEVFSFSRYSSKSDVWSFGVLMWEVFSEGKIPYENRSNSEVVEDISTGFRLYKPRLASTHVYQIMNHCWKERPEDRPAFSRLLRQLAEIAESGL

BTK [1] = biological target: T2, BTK (Homo sapiens, UniProt Q06187); experiment: BTK kinase activity, Z'-LYTE FRET biochemical assay; design: purchased Thermo Fisher Scientific PV3363; conditions: mean ± S.D; read-out: IC50, hBTK biochemical assay
Method: The kinase activity of BTK was measured using the Z′-LYTE assay based on fluorescence resonance energy transfer (FRET). […] Briefly, BTK, peptide, ATP and inhibitor mixtures were incubated for 1 h at room temperature. Then, Development Reagent A was added to each well, and incubation proceeded for another 1 h. […] The data were analyzed by GraphPad Prism 6 (GraphPad Software, CA, USA) to determine the IC50 values.

CD4+ Memory (CD3+CD28) = experiment: High-dimensional phosphorylation analysis, CD4+ Memory (CD3+CD28); assay type: cell-based, human; conditions: 30 µM, 5'
Method: as §1

NK cells (LPS) = experiment: High-dimensional phosphorylation analysis, NK cells (LPS); assay type: cell-based, human; conditions: 30 µM, 60'
BTK [2] = biological target: T2, BTK; experiment: BTK occupancy in B cell line (Ramos cells, biotinylated probe, AlphaScreen); assay type: cell-based
Method: A total of 5 × 10^5 Ramos cells/well were plated in 96-well PDL-coated plates in DMEM with high glucose (GIBCO) supplemented with 10% FBS. Serial dilutions of LY3439943 in DMSO (final DMSO concentration, 0.4%) were incubated with the cells for 1 h at 37 °C. An equal volume of a covalent biotinylated BTK probe was added (final concentration, 167 nM), and the cells were incubated for another 1 h at 37 °C. The cells were lysed, and the amount of BTK was determined using the AlphaScreen IgG Detection Kit (Perkin Elmer 6760617R) and an anti-BTK antibody (Thermo Scientific Cat# MA5-14929) following the manufacturer’s instructions. The signal was measured at 615 nm with an Envision plate reader (Perkin Elmer).

BTK [3] = biological target: T3, BTK (Rattus norvegicus, UniProt Q5S255); experiment: BTK occupancy molecular probe assay in rat PBMCs; assay type: cell-based; conditions: 1 h treatment, biotinylated probe; read-out: IC50, BTK target modulation (occupancy) in rat PBMCs
T3 construct: endogenous in cells; host or cells: rat PBMCs (normal rats in vitro; CIA model rats ex vivo)
Method: The BTK occupancy assay and analysis of BTK phosphorylation inhibition were performed as described previously. Briefly, isolated PBMCs were lysed with RIPA buffer (R0278, Sigma-Aldrich) containing 1 × protease/phosphatase inhibitor (1861281, Thermo Fisher Scientific) and EDTA (1861274, Thermo Fisher Scientific). The supernatants were collected by 10 min at 14,000 × g in microcentrifuge at 4 °C and biotinylated probe was added to bind free BTK for 1 h. Rabbit anti-BTK Ab (1:5000 in 1% BSA) bound the captured BTK/probe complex, and was detected with […] antibody conjugated with HRP then ultra-TMB solution was added to each well for the free BTK analysis. Analysis of free and total BTK levels for the phase I study was conducted by Cambridge Biomedical Inc. (MA, USA). BTK occupancy was calculated by taking the free BTK and total BTK results from a given donor and used the following formula: %BTKoccupancy=100%-FreeBTK/totalBTK×100.
BTK occupancy (%) was calculated from the free BTK percentage, which was compared with that of the untreated control group. […] Bone erosion ( →) was quantified a subchondral and bone destruction and synovitis (*) was scored degree of pannus formation, including synovial inflammation, hypertrophy, interstitial edema, and fibrosis (H&E). Cartilage damage (□) was semiquantitatively scored as an intensity of Safranin-O staining (red). […]

T2 sequence (Q06187 whole entry): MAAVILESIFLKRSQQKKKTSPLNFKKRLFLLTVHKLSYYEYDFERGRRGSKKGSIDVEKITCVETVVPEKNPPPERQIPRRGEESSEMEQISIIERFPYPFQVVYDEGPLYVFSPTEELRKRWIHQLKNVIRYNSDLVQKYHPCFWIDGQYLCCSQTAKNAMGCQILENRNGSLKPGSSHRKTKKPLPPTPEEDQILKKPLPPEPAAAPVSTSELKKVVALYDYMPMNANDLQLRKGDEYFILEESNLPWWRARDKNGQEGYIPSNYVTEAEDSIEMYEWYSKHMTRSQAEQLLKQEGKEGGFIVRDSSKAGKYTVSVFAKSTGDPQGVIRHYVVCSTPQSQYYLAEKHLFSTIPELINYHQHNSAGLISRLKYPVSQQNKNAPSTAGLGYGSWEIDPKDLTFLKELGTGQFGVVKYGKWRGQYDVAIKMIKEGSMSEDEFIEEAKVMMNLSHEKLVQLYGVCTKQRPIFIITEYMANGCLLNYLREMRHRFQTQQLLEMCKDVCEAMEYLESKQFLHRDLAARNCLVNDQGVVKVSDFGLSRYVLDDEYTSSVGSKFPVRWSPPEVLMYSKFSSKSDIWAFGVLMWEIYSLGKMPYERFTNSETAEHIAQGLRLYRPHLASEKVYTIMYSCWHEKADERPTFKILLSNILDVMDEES
T3 sequence (Q5S255 1-660): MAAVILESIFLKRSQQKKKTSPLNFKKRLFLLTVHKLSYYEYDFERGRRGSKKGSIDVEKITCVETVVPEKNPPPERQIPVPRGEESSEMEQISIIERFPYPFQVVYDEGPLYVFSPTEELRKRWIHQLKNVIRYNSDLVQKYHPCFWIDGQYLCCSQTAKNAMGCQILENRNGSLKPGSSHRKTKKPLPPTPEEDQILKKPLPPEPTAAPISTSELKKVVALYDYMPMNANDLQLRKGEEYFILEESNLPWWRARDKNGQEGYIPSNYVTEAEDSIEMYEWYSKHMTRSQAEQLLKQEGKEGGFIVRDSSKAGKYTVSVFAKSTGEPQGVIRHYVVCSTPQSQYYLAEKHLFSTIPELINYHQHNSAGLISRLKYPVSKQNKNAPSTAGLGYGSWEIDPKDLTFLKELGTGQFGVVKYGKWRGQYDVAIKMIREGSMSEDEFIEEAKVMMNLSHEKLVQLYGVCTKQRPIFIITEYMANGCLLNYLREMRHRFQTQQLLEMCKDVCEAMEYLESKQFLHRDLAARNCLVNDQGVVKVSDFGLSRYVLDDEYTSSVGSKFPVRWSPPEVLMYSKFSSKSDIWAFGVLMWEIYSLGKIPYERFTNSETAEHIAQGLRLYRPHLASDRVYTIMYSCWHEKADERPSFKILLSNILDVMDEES

Question: For `C=CC(=O)Nc1cccc(Oc2nc(Nc3ccc(N4CCN(C)CC4)cc3)nc3ccoc23)c1` [Poseltinib], which “4ebp1 phosphorylation, Log2Ratio Stim/Control” value (Neutrophils (LPS)) is on record?
Answer: Its value is 0.28.

Question: What about the “AKT1 phosphorylation, Log2Ratio Stim/Control” value (Neutrophils (LPS)) of the same compound?
Answer: Its value is 0.66.

Question: What about the “AMPK phosphorylation, Log2Ratio Stim/Control” value (Neutrophils (LPS)) of the same compound?
Answer: Its value is 0.29.

Question: And the “Akt phosphorylation, Log2Ratio Stim/Control” value (Neutrophils (LPS))?
Answer: The value was 0.66.

Question: And the “BTK phosphorylation, Log2Ratio Stim/Control” value (Neutrophils (LPS))?
Answer: The value was -0.25.

Question: And the “HSP27 phosphorylation, Log2Ratio Stim/Control” value (Neutrophils (LPS))?
Answer: The value was 0.34.

Question: And the “MAP2K1 phosphorylation, Log2Ratio Stim/Control” value (Neutrophils (LPS))?
Answer: Its value is 2.38.

Question: What about the “MNK phosphorylation, Log2Ratio Stim/Control” value (Neutrophils (LPS)) of the same compound?
Answer: Its value is 0.40.

Question: And the “RPS6 phosphorylation, Log2Ratio Stim/Control” value (Neutrophils (LPS))?
Answer: The value was 0.66.

Question: And the “selectivity toward BTK over ITK” value (ITK)?
Answer: Its value is 53 ×.

Question: What about the IC50 (BTK [1]) of the same compound?
Answer: Its IC50 is 4 nM.

Question: And the “BTK phosphorylation, Log2Ratio Stim/Control” value (CD4+ Memory (CD3+CD28))?
Answer: Its value is 1.21.

Question: And the “CD247 phosphorylation, Log2Ratio Stim/Control” value (CD4+ Memory (CD3+CD28))?
Answer: The value was 2.86.

Question: What about the “CrkL phosphorylation, Log2Ratio Stim/Control” value (CD4+ Memory (CD3+CD28)) of the same compound?
Answer: The value was 1.63.

Question: What about the “LCK phosphorylation, Log2Ratio Stim/Control” value (CD4+ Memory (CD3+CD28)) of the same compound?
Answer: Its value is 1.51.

Question: And the “PLCγ2 phosphorylation, Log2Ratio Stim/Control” value (CD4+ Memory (CD3+CD28))?
Answer: The value was 2.43.

Question: What about the “PTK2B phosphorylation, Log2Ratio Stim/Control” value (CD4+ Memory (CD3+CD28)) of the same compound?
Answer: The value was 0.93.

Question: And the “SLP76 phosphorylation, Log2Ratio Stim/Control” value (CD4+ Memory (CD3+CD28))?
Answer: The value was 1.63.

Question: What about the “Src phosphorylation, Log2Ratio Stim/Control” value (CD4+ Memory (CD3+CD28)) of the same compound?
Answer: The value was 0.82.

Question: What about the “ZAP70 phosphorylation, Log2Ratio Stim/Control” value (CD4+ Memory (CD3+CD28)) of the same compound?
Answer: The value was 1.22.

Question: What about the “AKT1 phosphorylation, Log2Ratio Stim/Control” value (NK cells (LPS)) of the same compound?
Answer: The value was 0.44.

Question: What about the “Akt phosphorylation, Log2Ratio Stim/Control” value (NK cells (LPS)) of the same compound?
Answer: Its value is 0.54.

Question: And the “BTK phosphorylation, Log2Ratio Stim/Control” value (NK cells (LPS))?
Answer: Its value is -0.04.

Question: What about the “GSK3B phosphorylation, Log2Ratio Stim/Control” value (NK cells (LPS)) of the same compound?
Answer: Its value is 0.91.

Question: And the “MAP2K1 phosphorylation, Log2Ratio Stim/Control” value (NK cells (LPS))?
Answer: Its value is 0.51.

Question: And the “MNK phosphorylation, Log2Ratio Stim/Control” value (NK cells (LPS))?
Answer: Its value is 0.07.

Question: And the “P38 phosphorylation, Log2Ratio Stim/Control” value (NK cells (LPS))?
Answer: The value was 0.36.

Question: And the “RPS6 phosphorylation, Log2Ratio Stim/Control” value (NK cells (LPS))?
Answer: The value was 0.30.

Question: And the “SMAD2 phosphorylation, Log2Ratio Stim/Control” value (NK cells (LPS); first SMAD2 line)?
Answer: Its value is 0.67.

Question: What about the “SMAD2 phosphorylation, Log2Ratio Stim/Control” value (NK cells (LPS); second SMAD2 line) of the same compound?
Answer: Its value is 0.07.

Question: What about the IC50 (BTK [2]) of the same compound?
Answer: The IC50 was 5 nM.

Question: What about the IC50 (BTK [3]) of the same compound?
Answer: The IC50 was 14.6 ± 3.3 nM.
